Source: US11407741B2, “Compounds and their use as selective inhibitors of caspase-2” (priority 2017, dated 2022)
Where a SMILES comes first, the peptide text is derived from it. The star is where a group is joined. X2 = O=C(O)C[C@H](N*)C(=O)COc1c(F)cccc1F; Quinaldoyl = O=C(c1ccc2ccccc2n1)*

Experiments:
[1] = biological target: T1, Caspase-2 (Homo sapiens, UniProt P42575); test: Caspase-2 inhibition assay for irreversible inhibitors (kinact/KI, continuous method); type: biochemical
T1 construct: the Caspase-2 and Caspase-3 are human recombinant active enzymes; purchased Enzo Life ALX-201-057-U100
T1 sequence (P42575 170-325 limits assumed): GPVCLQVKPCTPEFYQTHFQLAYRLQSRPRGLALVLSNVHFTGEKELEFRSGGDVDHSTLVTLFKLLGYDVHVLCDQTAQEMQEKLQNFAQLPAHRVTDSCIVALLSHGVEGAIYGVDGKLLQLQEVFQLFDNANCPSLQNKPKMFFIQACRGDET
T1 sequence (P42575 348-452 limits assumed): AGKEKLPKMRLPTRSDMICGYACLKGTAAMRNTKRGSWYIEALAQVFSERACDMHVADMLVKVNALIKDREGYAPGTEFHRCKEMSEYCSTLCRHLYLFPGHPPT
Experimental: (§1) The efficiency of the comparative compound Δ2Me-TRP601, that is an already known group II Caspase inhibitor (inhibitor of Caspase-2, Caspase-3 and Caspase-7), has been assessed by a similar protocol described in Chauvier et al., 2011 Cell Death Dis 2011, 2:e203.
(§2) In this example, the Caspase-2 and Caspase-3 are human recombinant active enzymes that are respectively provided by Enzo Life® (ALX-201-057-U100) and R&D Systems® (707-C3-010/CF).
Caspase-2 is used at a final concentration of 0.1 nM in a “Caspase-2 buffer” containing 20 mM HEPES (pH 7.4), 5 mM DTT, 2 mM EDTA, 0.1% CHAPS and 800 mM succinate. Caspase-3 is used at a final concentration of 0.5 nM in a “Caspase-3 buffer” containing 20 mM HEPES (pH 7.4), 0.1% CHAPS, 5 mM DTT, and 2 mM EDTA.
(§3) The peptide substrates used for the enzymatic activity measurements are Ac-DEVD-AMC and Ac-VDVAD-AMC commercialized by EnzoLife® (respectively referenced ALX-260-031-M005 and ALX-260-060-M005). They are fluorogenic due to the presence of their AMC (7-amino-4-methylcoumarin) end group. The releasing of AMC enables to follow the enzymatic activity in fluorescence unit RFU over time in a 96-wells microplate.
The fluorescence values are measured at 37° C. with a spectrofluorometer with a microplate reader BMG FLUOstar OPTIMA. This apparatus is driven by the software Biolise® and is equipped with thermoelectric cooling device by Peltier effect. The mathematical analyses of the experimental data are done with the software Kaleidagraph®.
The inhibitory properties of the tested compounds are evaluated by the determination of the kinact/KI ratio regarding either Caspase-2 or Caspase-3 wherein: • kinact is the maximal inactivation rate constant, and • KI is the dissociation constant according to:
Said ratio is measured according to the continuous method (Allison R D. Curr Protoc Protein Sci. 2001 May; Chapter 3:Unit 3.5.; Chauvier et al., 2011 Cell Death Dis 2:e203; Tan et al., J Med Chem 2015, […]).
Briefly, Caspases activities were determined by monitoring the hydrolysis of fluorogenic substrates (λexc=355 nm, λem=460 nm) as a function of time, in the presence of untreated Caspases (control) or Caspases that had been incubated with a test compound, for 30 min minimum at 37° C. using a BMG Fluostar microplate reader (black 96-well microplates) and the initial velocity (V0) was determined from the linear portion of the progress curve.
Substrates and compounds were previously dissolved in DMSO at 10 mM, with the final solvent concentration kept at lower 4% (v/v). V0, relative velocities, KM and IC50 were determined from experimental data using Mars data Analysis 2.0 and Kaleidagraph softwares.
Inhibitor binding affinity (dissociation constant, KI) and first-order rate constant (k3) parameters were determined for Caspase-2 and Caspase-3 using the progress curve method. The ratio k3/KI was obtained by fitting the experimental data to the equations (F.U., fluorescence unit): […]
A continuous method of determination of the kinact/KI ratio was used for evaluating the inhibitory activity of the tested compounds against Caspase-2 and Caspase-3.
The reaction mixture is prepared by letting the enzyme and the buffer incubate at 37° C.
The tested inhibitory compounds are prepared at different concentrations (¼ IC50; ½ IC50; IC50; 2 IC50; 4 IC50) and put in the microplate.
Then the reaction mixture comprising the enzyme, the buffer and the substrate is rapidly added in the wells.
The activities of the enzyme are measured between 45 and 60 minutes.
The RFU (Relative Fluorescence Units)=f(times) curves are traced for each concentration of tested molecule according to the following equation: ((((−V0)*(exp(−kobs*m0)))+V0)/kobs*)+RFU0
in which: • V0 corresponds to the initial rate (RFU·s^−1) in the concentration of 0 of the tested inhibitory compound; • kobs is the inactivation rate constant; • RFU0 is the fluorescence value at t=0 min; and • m0 is the variable i.e. the inhibitor concentration.

[2] = biological target: T2, Caspase-3 (Homo sapiens, UniProt P42574); test: Caspase-3 inhibition assay for irreversible inhibitors (kinact/KI, continuous method); type: biochemical; conditions: human recombinant Caspase-3 0.5 nM, 37° C.
T2 construct: the Caspase-2 and Caspase-3 are human recombinant active enzymes; purchased R&D Systems 707-C3-010/CF
T2 sequence (P42574 29-175 limits assumed): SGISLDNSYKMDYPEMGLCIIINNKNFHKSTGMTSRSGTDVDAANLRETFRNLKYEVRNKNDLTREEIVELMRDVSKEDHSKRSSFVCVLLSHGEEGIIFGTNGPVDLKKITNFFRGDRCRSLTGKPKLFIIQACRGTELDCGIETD
T2 sequence (P42574 176-277 limits assumed): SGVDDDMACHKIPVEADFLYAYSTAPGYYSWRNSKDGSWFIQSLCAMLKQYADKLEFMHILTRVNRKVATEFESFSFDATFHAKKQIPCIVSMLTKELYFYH
Experimental: as §1, §2
Caspase-2 is used at a final concentration of 0.1 nM in a “Caspase-2 buffer” containing 20 mM HEPES (pH 7.4), 5 mM DTT, 2 mM EDTA, 0.1% CHAPS and 800 mM succinate. […]
as §3, with “They are fluorogenic due to the presence of their AMC (7-amino-4-methylcoumarin) end group.” left out
The fluorescence values are measured at 37° C. with a spectrofluorometer with a microplate reader BMG FLUOstar OPTIMA. […]
The inhibitory properties of the tested compounds are evaluated by the determination of the kinact/KI ratio regarding either Caspase-2 or Caspase-3 wherein: • kinact is the maximal inactivation rate constant, and • KI is the dissociation constant according to: […]
The activities of the enzyme are measured between 45 and 60 minutes. […]

[3] = tested on: HeLa cells; test: Protection against vincristine-induced cell death, propidium iodide flow cytometry; type: cell-based, human; set-up: Index of cell death: key to the marks not given beside the values; conditions: 20 nM Vincristine for 48 hours, propidium iodide positive cells
Experimental: Human HeLa cells are used in this model. HeLa cells (cervical cancer cell line) were obtained from American Type Cell Collection (ATCC), and were cultured in Dulbecco's Modified Eagle Medium (DMEM, High Glucose, GlutaMAX™, Pyruvate) (Gibco, Life technologies), supplemented with 10% FCS and antibiotics (Gibco, Life technologies).
Human HeLa cells are treated with a solution of Vincristine (Sigma Aldrich) (diluted in water at 5 mM). Vincristine works partly by binding to the Tubulin protein, stopping the cell from separating its chromosomes during the metaphase; the cell then undergoes apoptosis through a caspase-dependent process.
Propidium iodide (PI) (Sigma Aldrich) is used to evaluate plasma membrane permeabilisation, a sign of cell death.
24 hours before pharmacological treatment, HeLa cells were plated into 24-well plates. […] Cells were exposed or not (control), to 20 nM Vincristine for 48 hours.
The content of each well is collected is added to PBS and then centrifuged (900 rpm; 5 min).
The pellet obtained is put into 300 μL of a medium comprising propidium iodide and incubated (37° C., 5% CO2) in the dark for 5 minutes and then subjected to flow cytometry analysis.
Fluorescence-Activated Cell Sorting was performed using a FACSCalibur cytometer (Becton Dickinson, San Jose, Calif.). For each sample, data from 5,000 Cells were registered and analyzed with the CellQuest Pro software (Becton Dickinson). Analysis included FSC (Forward Scatter/relating to the cells'size) and SSC (Side Scatter/relating to the cells' granularity) parameters together with FL-1 and FL-3 channel.
The percentage of propidium iodide positive cells gives an estimation of cell death.

Row | Compound | Selectivity for Caspase 2 ([1]; comparison of kinact/KI ratios regarding caspase 2 and 3) | k3/KI Casp2 ([1]; human recombinant Caspase-2 0.1 nM, 37° C.) | Selectivity ratio (C2/C3) ([1]; ratio of k3/KI Casp2 to Casp3) | k3/KI Casp3 [2] | Index of cell death [3]
1 | CC(C)[C@H](NC(=O)c1ccc2ccccc2n1)C(=O)N[C@@H](CC(=O)O)C(=O)N[C@H](C(=O)N[C@@H](C)C(=O)N[C@@H](CC(=O)O)C(=O)COc1c(F)cccc1F)C(C)C [Δ2Me-TRP-601, reference compound] (Quinaldoyl-VDVA-X2) | no | 1 586 020 M^−1 · s^−1 | 0.98 | 1 613 405 M^−1 · s^−1 | –
2 | CC[C@]1(O)C[C@H]2CN(CCc3c([nH]c4ccccc34)[C@@](C(=O)OC)(c3cc4c(cc3OC)N(C=O)[C@H]3[C@@](O)(C(=O)OC)[C@H](OC(C)=O)[C@]5(CC)C=CCN6CC[C@]43[C@@H]65)C2)C1 [Vincristine alone, Vincristine, reference compound] | – | – | – | – | ++++
